Assays:
[1] = test system: Plasmopara viticola; experiment: Example B: Plasmopara viticola test in grape (greenhouse, preventive); assay type: in vivo; details: 24 h, grape seedlings sprayed one day before inoculation, disease severity rating, read-out: control compared to the untreated check
Method: Example B: Plasmopara viticola Test in Grape
The compound were dissolved in 2% DMSO/Acetone & then mixed with water containing emulsifier to a calibrated spray volume of 50 mL. The spray solutions were poured into spray bottles for further applications.
To test the preventive activity of compounds, 5 week old healthy grape seedlings, cv. Thompson seedless, raised in the greenhouse, were sprayed with the active compound preparation at the stated application rates inside spray cabinets using hallow cone nozzles. One day after treatment, the plants were inoculated with an inoculum suspension (sterile water) containing 6×10^4 Plasmopara viticola inoculum. The inoculated plants were then kept in a greenhouse chamber at 18-21° C. temperature and 95-100% relative humidity for disease expression.
A visual assessment of the performance of the compound was carried out by rating the disease severity (0-100% scale) on treated plants 3, 7 and 10 days after application. Efficacy (% control) of the compound was calculated by comparing the disease rating in the treatment with the one of the untreated control. The compounds were also assessed for their plant compatibility by recording symptoms like necrosis, chlorosis & stunting

[2] = test system: Phytophthora infestans; experiment: microbe, parasite or virus in culture; assay type: cell-based; details: in Secale cereale, 168 h, read-out: control compared to the untreated check
[3] = test system: Phytophthora infestans; experiment: whole plant or invertebrate; assay type: in vivo, Phytophthora infestans on tomato plants; details: in Solanum lycopersicum, 24 h, read-out: control compared to the untreated check

COc1nc(OC)nc(OCC(=O)N2CCC(c3nc(C4=NOC(c5c(F)cccc5Br)C4)cs3)CC2)n1 (stereo not drawn) [Compound 110, 1-(4-(4-(5-(2-bromo-6-fluorophenyl)-4,5-dihydroisoxazol-3-yl)thiazol-2-yl)piperidin-1-yl)-2-((4,6-dimethoxy-1,3,5-triazin-2-yl)oxy)ethan-1-one]
≥ 70%: pest or weed control at 50 ppm [1] | inhibition of growth at 30 ppm [2] | pest or weed control at 50 ppm [3]

N#Cc1ccnc(OCC(=O)N2CCC(c3nc(C4=NOC(c5c(Cl)cccc5Cl)C4)cs3)CC2)n1 (stereo not drawn) [Compound 112, 2-(2-(4-(4-(5-(2,6-dichlorophenyl)-4,5-dihydroisoxazol-3-yl)thiazol-2-yl)piperidin-1-yl)-2-oxoethoxy)pyrimidine-4-carbonitrile]
≥ 70%: pest or weed control at 50 ppm [1] | inhibition of growth at 30 ppm [2] | pest or weed control at 50 ppm [3]

CS(=O)(=O)Oc1cccc(Cl)c1C1CC(c2csc(C3CCN(C(=O)COc4nccc(C#N)n4)CC3)n2)=NO1 (stereo not drawn) [Compound 113, 3-chloro-2-(3-(2-(1-(2-((4-cyanopyrimidin-2-yl)oxy)acetyl)piperidin-4-yl)thiazol-4-yl)-4,5-dihydroisoxazol-5-yl)phenyl methanesulfonate]
≥ 70%: pest or weed control at 50 ppm [1] | inhibition of growth at 30 ppm [2] | pest or weed control at 50 ppm [3]

N#Cc1ccnc(OCC(=O)N2CCC(c3nc(C4=NOC(c5c(Cl)cccc5C(F)(F)F)C4)cs3)CC2)n1 (stereo not drawn) [Compound 114, 2-(2-(4-(4-(5-(2-chloro-6-(trifluoromethyl)phenyl)-4,5-dihydroisoxazol-3-yl)thiazol-2-yl)piperidin-1-yl)-2-oxoethoxy)pyrimidine-4-carbonitrile]
≥ 70%: pest or weed control at 50 ppm [1] | inhibition of growth at 30 ppm [2] | pest or weed control at 50 ppm [3]

N#Cc1ccnc(OCC(=O)N2CCC(c3nc(C4=NOC(c5c(F)cccc5F)C4)cs3)CC2)n1 (stereo not drawn) [Compound 116, 2-(2-(4-(4-(5-(2,6-difluorophenyl)-4,5-dihydroisoxazol-3-yl)thiazol-2-yl)piperidin-1-yl)-2-oxoethoxy)pyrimidine-4-carbonitrile]
≥ 70%: pest or weed control at 50 ppm [1] | inhibition of growth at 30 ppm [2] | pest or weed control at 50 ppm [3]

N#Cc1ccnc(OCC(=O)N2CCC(c3nc(C4=NOC(c5c(F)cccc5Cl)C4)cs3)CC2)n1 (stereo not drawn) [Compound 118, 2-(2-(4-(4-(5-(2-chloro-6-fluorophenyl)-4,5-dihydroisoxazol-3-yl)thiazol-2-yl)piperidin-1-yl)-2-oxoethoxy)pyrimidine-4-carbonitrile]
≥ 70%: pest or weed control at 50 ppm [1] | inhibition of growth at 30 ppm [2] | pest or weed control at 50 ppm [3]

COc1cncc(OCC(=O)N2CCC(c3nc(C4=NOC(c5c(F)cccc5Br)C4)cs3)CC2)n1 (stereo not drawn) [Compound 120, 1-(4-(4-(5-(2-bromo-6-fluorophenyl)-4,5-dihydroisoxazol-3-yl)thiazol-2-yl)piperidin-1-yl)-2-((6-methoxypyrazin-2-yl)oxy)ethan-1-one]
≥ 70%: pest or weed control at 50 ppm [1] | inhibition of growth at 30 ppm [2] | pest or weed control at 50 ppm [3]

O=C(COc1nccnc1Cl)N1CCC(c2nc(C3=NOC(c4c(F)cccc4Br)C3)cs2)CC1 (stereo not drawn) [Compound 121, 1-(4-(4-(5-(2-bromo-6-fluorophenyl)-4,5-dihydroisoxazol-3-yl)thiazol-2-yl)piperidin-1-yl)-2-((3-chloropyrazin-2-yl)oxy)ethan-1-one]
≥ 70%: pest or weed control at 50 ppm [1] | inhibition of growth at 30 ppm [2] | pest or weed control at 50 ppm [3]

O=C(COc1nccnc1Cl)N1CCC(c2nc(C3=NOC(c4c(F)cccc4F)C3)cs2)CC1 (stereo not drawn) [Compound 122, 2-((3-chloropyrazin-2-yl)oxy)-1-(4-(4-(5-(2,6-difluorophenyl)-4,5-dihydroisoxazol-3-yl)thiazol-2-yl)piperidin-1-yl)ethan-1-one]
≥ 70%: pest or weed control at 50 ppm [1] | inhibition of growth at 30 ppm [2] | pest or weed control at 50 ppm [3]

O=C(COc1nccnc1Cl)N1CCC(c2nc(C3=NOC(c4c(Cl)cccc4Cl)C3)cs2)CC1 (stereo not drawn) [Compound 124, 2-((3-chloropyrazin-2-yl)oxy)-1-(4-(4-(5-(2,6-dichlorophenyl)-4,5-dihydroisoxazol-3-yl)thiazol-2-yl)piperidin-1-yl)ethan-1-one]
≥ 70%: pest or weed control at 50 ppm [1] | inhibition of growth at 30 ppm [2] | pest or weed control at 50 ppm [3]

From patent US12471596B2 (priority 2019, dated 2025)
